For one data set, the target named is T1, 5-lipoxygenase (Homo sapiens, UniProt P09917).
T1 sequence (P09917 1-674): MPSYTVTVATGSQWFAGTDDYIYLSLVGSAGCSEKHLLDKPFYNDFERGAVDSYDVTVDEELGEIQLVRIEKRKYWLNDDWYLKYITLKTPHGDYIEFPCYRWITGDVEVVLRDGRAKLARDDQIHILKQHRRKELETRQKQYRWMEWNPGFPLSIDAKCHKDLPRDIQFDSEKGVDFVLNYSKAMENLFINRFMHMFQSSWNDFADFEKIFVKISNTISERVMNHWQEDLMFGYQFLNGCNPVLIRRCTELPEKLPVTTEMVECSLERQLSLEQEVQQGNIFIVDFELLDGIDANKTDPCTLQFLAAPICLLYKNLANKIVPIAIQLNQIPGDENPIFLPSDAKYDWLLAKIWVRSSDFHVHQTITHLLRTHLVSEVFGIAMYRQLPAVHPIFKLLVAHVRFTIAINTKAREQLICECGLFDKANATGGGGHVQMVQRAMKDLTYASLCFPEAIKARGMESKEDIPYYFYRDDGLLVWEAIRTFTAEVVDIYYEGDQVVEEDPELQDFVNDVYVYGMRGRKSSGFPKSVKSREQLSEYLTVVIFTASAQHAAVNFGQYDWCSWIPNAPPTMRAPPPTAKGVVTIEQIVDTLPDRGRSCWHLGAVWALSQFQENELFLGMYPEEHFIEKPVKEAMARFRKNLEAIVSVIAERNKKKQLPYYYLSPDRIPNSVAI
As to the kind of experiment: 5-lipoxygenase enzyme assay, % inhibition (5-LO). In kind it is biochemical. The following applies: for inhibition at 1 µg/mL: Dosage 1.0 μg/ml.

Another data set deals with cyclooxygenase (Homo sapiens, UniProt P23219). As to the kind of experiment: cyclooxygenase enzyme assay, % inhibition (CO). Conditions: for inhibition at 0.1 µg/mL: Dosage 0.1 μg/ml; for inhibition at 1 µg/mL: Dosage 1.0 μg/ml; for inhibition at 5 µg/mL: Dosage 5.0 μg/ml; for inhibition at 0.5 µg/mL: Dosage 0.5 μg/ml. In kind it is biochemical.
Another data set deals with gastric acid secretion. Conditions: S. Szabo et al., Experimentia, 38, 254, 1982; cited from earlier work.
For another data set, the system named is gastric cytoprotection. Conditions: S. Szabo et al., Experimentia, 38, 254, 1982; cited from earlier work.
The nature of data set [1]: solubility remark (footnote of table 9). Format: physicochemical. The following applies: footnote to 5-LO value at 100 μg/ml.

The values that follow come from US4720503A, “N-substituted fused-heterocyclic carboxamide derivatives as dual cyclooxygenase and lipoxygenase inhibitors” (Merck & Co., Inc., priority 1985, dated 1988).

For orientation: inhibition means the change of the read-out against control, counted positive when it falls. High values mean a response far below the control, low ones a response near the control.

Chain of cyclooxygenase (P23219 24-599): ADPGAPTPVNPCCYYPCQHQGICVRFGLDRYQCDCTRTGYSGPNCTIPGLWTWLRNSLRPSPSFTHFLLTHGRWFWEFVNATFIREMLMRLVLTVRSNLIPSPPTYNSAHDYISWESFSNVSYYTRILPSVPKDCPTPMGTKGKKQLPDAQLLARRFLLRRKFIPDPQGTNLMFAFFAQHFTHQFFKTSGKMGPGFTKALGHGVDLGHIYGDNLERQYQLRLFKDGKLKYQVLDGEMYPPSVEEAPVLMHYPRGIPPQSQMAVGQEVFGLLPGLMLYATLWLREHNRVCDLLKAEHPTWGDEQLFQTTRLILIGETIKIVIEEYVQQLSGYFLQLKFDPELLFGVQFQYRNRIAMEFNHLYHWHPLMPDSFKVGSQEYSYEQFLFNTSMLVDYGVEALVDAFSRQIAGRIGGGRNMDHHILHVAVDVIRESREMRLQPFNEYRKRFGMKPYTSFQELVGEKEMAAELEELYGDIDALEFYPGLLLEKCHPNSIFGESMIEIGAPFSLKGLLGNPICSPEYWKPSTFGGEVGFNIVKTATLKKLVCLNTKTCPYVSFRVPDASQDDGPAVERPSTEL

Consider `Cc1ccc(C(=CNC(=O)c2sc3ccsc3c2O)c2ccco2)cc1` [S p-tolyl 2-furyl H, N-[2-(2-Furyl)-2-(4-methylphenyl)ethenyl]-3-hydroxythieno[3,2-b]thiophene-2-carboxamide], for which the inhibition at 0.1 µg/mL against 5-lipoxygenase (Dosage 0.1 μg/ml) is 11%; against cyclooxygenase, 49%. For the same compound, the inhibition at 1 µg/mL is 14% on 5-lipoxygenase and 97% at cyclooxygenase. Further, the inhibition at 10 µg/mL stood at 66% against 5-lipoxygenase (Dosage 10.0 μg/ml) and 100% at cyclooxygenase (Dosage 10.0 μg/ml). This compound also showed an inhibition at 5 µg/mL against cyclooxygenase of 98%.
Regarding `CCCCC[C@H](O)/C=C/[C@@H]1[C@@H](C/C=C\CCCC(=O)O)[C@H](O)C[C@H]1O` [protaglandin F2B], the “inhibition of gastric acid secretion” value in the data set with gastric acid secretion was “does not inhibit gastric acid secretion”. Also, the gastric cytoprotection entry in the data set on gastric cytoprotection was “does induce gastric cytoprotection”.
`COC(=O)c1cc2oc(C(=O)NC=C(c3ccccc3)c3ccccc3)c(O)c2s1` [O phenyl phenyl CO2 CH3, N-(2,2-Diphenylethenyl)-5-carbomethoxy-3-hydroxythieno[3,2-b]furan-2-carboxamide]: on 5-lipoxygenase (Dosage 0.5 μg/ml), 0.5 µg/mL produced 30% inhibition. Also, on 5-lipoxygenase (Dosage 5.0 μg/ml), the inhibition at 5 µg/mL came to 34%. On cyclooxygenase, this compound returned an inhibition at 0.5 µg/mL of 95%, an inhibition at 1 µg/mL of 98% and an inhibition at 5 µg/mL of 100%. Also, the inhibition at 2 µg/mL against cyclooxygenase (Dosage 2.0 μg/ml) amounted to 98%.
Take `O=C(NC=C(c1ccccc1)c1ccccc1)c1sc2ccsc2c1O` [S phenyl phenyl H, N-(2,2-diphenylethenyl)-3-hydroxythieno[3,2-b]thiophene-2-carboxamide]: testing at 1 µg/mL at 5-lipoxygenase gave an inhibition of 34%. At cyclooxygenase, this compound yielded an inhibition at 0.1 µg/mL of 39% and an inhibition at 1 µg/mL of 100%. At cyclooxygenase (Dosage 0.48 μg/ml), this compound displayed an inhibition at 0.48 µg/mL of 99%. On cyclooxygenase (Dosage 2.40 μg/ml), the inhibition at 2.4 µg/mL came to 100%.
In the case of `COC(=O)c1cc2sc(C(=O)NC=C(c3ccccc3)c3ccccc3)c(O)c2s1` [S phenyl phenyl CO2 CH3, 5-Carbomethoxy-N-(2,2-diphenylethenyl)-3-hydroxythieno[3,2-b]thiophene-2-carboxamide], the “solubility (footnote)” value in data set [1] is given as “very insoluble”. Besides, on 5-lipoxygenase, the inhibition at 100 µg/mL turned out to be 12%. The compound also came in with an inhibition at 0.01 µg/mL at cyclooxygenase (Dosage 0.01 μg/ml) of 9%. For the same compound, the inhibition at 0.05 µg/mL against cyclooxygenase (Dosage 0.05 μg/ml) worked out at 33%. On cyclooxygenase, the inhibition at 0.5 µg/mL amounted to 80% and the inhibition at 5 µg/mL turned out to be 100%. This compound also had an inhibition at 100 µg/mL against cyclooxygenase (Dosage 100 μg/ml) of 100%.
